Source: the NIST ThermoML archive (doi:10.1021/je2009736)
± gives the expanded uncertainty stated by the source.

What was measured:
[1] = xn = mol fraction of the nth substance listed; settings: 101 kPa, Liquid, Vibrating tube method
[2] = 298.15 K; 101.33 kPa; Liquid; Vibrating tube method

C[SiH]1O[SiH](C)O[SiH](C)O[SiH](C)O1 (stereo unspecified) [2,4,6,8-tetramethyl-1,3,5,7,2,4,6,8-tetroxatetrasilocane] + Cc1ccccc1
mass density [kg/m3], [1]
Settings | 288.15 K | 298.15 K | 308.15 K
x1 = 0.0499 | 886.6 ± 0.13 | 877.08 ± 0.14 | 867.53 ± 0.14
x1 = 0.0999 | 899.94 ± 0.13 | 890.19 ± 0.13 | 880.4 ± 0.13
x1 = 0.15 | 911.67 ± 0.13 | 901.66 ± 0.13 | 891.68 ± 0.13
x1 = 0.2 | 921.98 ± 0.12 | 911.75 ± 0.13 | 901.57 ± 0.13
x1 = 0.25 | 931.15 ± 0.12 | 920.71 ± 0.12 | 910.33 ± 0.12
x1 = 0.3 | 939.31 ± 0.12 | 928.7 ± 0.12 | 918.15 ± 0.12
x1 = 0.3502 | 946.71 ± 0.12 | 935.91 ± 0.12 | 925.11 ± 0.12
x1 = 0.4 | 953.26 ± 0.12 | 942.25 ± 0.12 | 931.31 ± 0.12
x1 = 0.4501 | 959.23 ± 0.11 | 948.05 ± 0.12 | 936.94 ± 0.12
x1 = 0.5004 | 964.63 ± 0.11 | 953.32 ± 0.11 | 942.01 ± 0.12
x1 = 0.5504 | 969.56 ± 0.11 | 958.11 ± 0.11 | 946.61 ± 0.12
x1 = 0.5998 | 973.98 ± 0.11 | 962.38 ± 0.11 | 950.74 ± 0.11
x1 = 0.6497 | 978.02 ± 0.11 | 966.26 ± 0.11 | 954.47 ± 0.11
x1 = 0.6994 | 981.74 ± 0.11 | 969.83 ± 0.11 | 957.9 ± 0.11
x1 = 0.7497 | 985.15 ± 0.11 | 973.12 ± 0.11 | 961.05 ± 0.11
x1 = 0.8 | 988.34 ± 0.11 | 976.19 ± 0.11 | 963.99 ± 0.11
x1 = 0.8494 | 991.18 ± 0.11 | 978.9 ± 0.11 | 966.61 ± 0.11
x1 = 0.8995 | 993.85 ± 0.11 | 981.45 ± 0.11 | 969.04 ± 0.11

C[SiH]1O[SiH](C)O[SiH](C)O[SiH](C)O1 (stereo unspecified) [2,4,6,8-tetramethyl-1,3,5,7,2,4,6,8-tetroxatetrasilocane] + c1ccccc1
mass density [kg/m3], [1]
Settings | 288.15 K | 298.15 K | 308.15 K
x1 = 0.0497 | 898.88 ± 0.13 | 888.24 ± 0.13 | 877.55 ± 0.14
x1 = 0.0999 | 911.74 ± 0.13 | 900.99 ± 0.13 | 890.29 ± 0.13
x1 = 0.1499 | 922.78 ± 0.12 | 911.91 ± 0.13 | 901.26 ± 0.13
x1 = 0.1997 | 932.3 ± 0.12 | 921.32 ± 0.12 | 910.69 ± 0.12
x1 = 0.2501 | 940.72 ± 0.12 | 929.65 ± 0.12 | 918.93 ± 0.12
x1 = 0.3 | 948.04 ± 0.12 | 936.87 ± 0.12 | 926.1 ± 0.12
x1 = 0.35 | 954.56 ± 0.12 | 943.15 ± 0.12 | 932.28 ± 0.12
x1 = 0.3999 | 960.28 ± 0.11 | 948.81 ± 0.12 | 937.73 ± 0.12
x1 = 0.4498 | 965.46 ± 0.11 | 953.89 ± 0.11 | 942.65 ± 0.12
x1 = 0.4999 | 970.05 ± 0.11 | 958.4 ± 0.11 | 947.02 ± 0.11
x1 = 0.5498 | 974.22 ± 0.11 | 962.44 ± 0.11 | 950.92 ± 0.11
x1 = 0.5999 | 978.03 ± 0.11 | 966.16 ± 0.11 | 954.53 ± 0.11
x1 = 0.6486 | 981.36 ± 0.11 | 969.41 ± 0.11 | 957.65 ± 0.11
x1 = 0.7001 | 984.61 ± 0.11 | 972.54 ± 0.11 | 960.64 ± 0.11
x1 = 0.7495 | 987.43 ± 0.11 | 975.28 ± 0.11 | 963.27 ± 0.11
x1 = 0.8001 | 990.04 ± 0.11 | 977.8 ± 0.11 | 965.71 ± 0.11
x1 = 0.8499 | 992.42 ± 0.11 | 980.12 ± 0.11 | 967.91 ± 0.11
x1 = 0.8986 | 994.56 ± 0.11 | 982.19 ± 0.11 | 969.9 ± 0.11

C[SiH]1O[SiH](C)O[SiH](C)O[SiH](C)O1 (stereo unspecified) [2,4,6,8-tetramethyl-1,3,5,7,2,4,6,8-tetroxatetrasilocane] + Cc1ccccc1C
mass density [kg/m3], [1]
Settings | 288.15 K | 298.15 K | 308.15 K
x1 = 0.0499 | 896.79 ± 0.13 | 888.17 ± 0.13 | 879.45 ± 0.13
x1 = 0.1 | 908.22 ± 0.13 | 899.3 ± 0.13 | 890.28 ± 0.13
x1 = 0.15 | 918.4 ± 0.12 | 909.22 ± 0.13 | 899.95 ± 0.13
x1 = 0.2 | 927.56 ± 0.12 | 918.11 ± 0.12 | 908.59 ± 0.12
x1 = 0.25 | 935.82 ± 0.12 | 926.11 ± 0.12 | 916.33 ± 0.12
x1 = 0.2998 | 943.2 ± 0.12 | 933.25 ± 0.12 | 923.21 ± 0.12
x1 = 0.3501 | 949.98 ± 0.12 | 939.8 ± 0.12 | 929.53 ± 0.12
x1 = 0.3998 | 956.06 ± 0.11 | 945.66 ± 0.12 | 935.16 ± 0.12
x1 = 0.4496 | 961.56 ± 0.11 | 950.95 ± 0.11 | 940.25 ± 0.12
x1 = 0.4998 | 966.65 ± 0.11 | 955.84 ± 0.11 | 944.92 ± 0.12
x1 = 0.5497 | 971.24 ± 0.11 | 960.22 ± 0.11 | 949.1 ± 0.11
x1 = 0.5997 | 975.45 ± 0.11 | 964.25 ± 0.11 | 952.96 ± 0.11
x1 = 0.6496 | 979.25 ± 0.11 | 967.88 ± 0.11 | 956.36 ± 0.11
x1 = 0.7001 | 982.82 ± 0.11 | 971.27 ± 0.11 | 959.58 ± 0.11
x1 = 0.7502 | 986.05 ± 0.11 | 974.32 ± 0.11 | 962.44 ± 0.11
x1 = 0.7998 | 988.96 ± 0.11 | 977.09 ± 0.11 | 965.04 ± 0.11
x1 = 0.848 | 991.61 ± 0.11 | 979.54 ± 0.11 | 967.33 ± 0.11
x1 = 0.9002 | 994.23 ± 0.11 | 982.02 ± 0.11 | 969.65 ± 0.11

Cc1ccccc1 [toluene]
Settings | mass density [kg/m3]
[2] | 862.23 ± 0.13

c1ccccc1 [benzene]
Settings | mass density [kg/m3]
[2] | 873.57 ± 0.13

Cc1cccc(C)c1 [1,3-dimethylbenzene]
Settings | mass density [kg/m3]
[2] | 859.86 ± 0.13

Cc1ccccc1C [1,2-dimethylbenzene]
Settings | mass density [kg/m3]
[2] | 875.72 ± 0.13

C[SiH]1O[SiH](C)O[SiH](C)O[SiH](C)O1 (stereo unspecified) [2,4,6,8-tetramethyl-1,3,5,7,2,4,6,8-tetroxatetrasilocane] + Cc1ccc(C)cc1
mass density [kg/m3], [1]
Settings | 288.15 K | 298.15 K | 308.15 K
x1 = 0.0499 | 879.33 ± 0.13 | 870.42 ± 0.14 | 861.48 ± 0.14
x1 = 0.0999 | 892.03 ± 0.13 | 882.82 ± 0.13 | 873.61 ± 0.13
x1 = 0.1501 | 903.51 ± 0.13 | 893.96 ± 0.13 | 884.48 ± 0.13
x1 = 0.1999 | 913.85 ± 0.12 | 904.11 ± 0.13 | 894.33 ± 0.13
x1 = 0.25 | 923.25 ± 0.12 | 913.34 ± 0.12 | 903.35 ± 0.13
x1 = 0.2999 | 931.83 ± 0.12 | 921.7 ± 0.12 | 911.4 ± 0.12
x1 = 0.3501 | 939.62 ± 0.12 | 929.23 ± 0.12 | 918.8 ± 0.12
x1 = 0.4 | 946.73 ± 0.12 | 936.18 ± 0.12 | 925.53 ± 0.12
x1 = 0.4502 | 953.29 ± 0.12 | 942.54 ± 0.12 | 931.67 ± 0.12
x1 = 0.4997 | 959.21 ± 0.11 | 948.26 ± 0.12 | 937.19 ± 0.12
x1 = 0.5493 | 964.63 ± 0.11 | 953.54 ± 0.11 | 942.24 ± 0.12
x1 = 0.6001 | 969.79 ± 0.11 | 958.45 ± 0.11 | 947.03 ± 0.12
x1 = 0.6501 | 974.4 ± 0.11 | 962.93 ± 0.11 | 951.37 ± 0.11
x1 = 0.7002 | 978.67 ± 0.11 | 967.02 ± 0.11 | 955.31 ± 0.11
x1 = 0.7472 | 982.39 ± 0.11 | 970.62 ± 0.11 | 958.76 ± 0.11
x1 = 0.7998 | 986.27 ± 0.11 | 974.32 ± 0.11 | 962.3 ± 0.11
x1 = 0.8492 | 989.69 ± 0.11 | 977.56 ± 0.11 | 965.38 ± 0.11
x1 = 0.9002 | 992.92 ± 0.11 | 980.61 ± 0.11 | 968.28 ± 0.11

C[SiH]1O[SiH](C)O[SiH](C)O[SiH](C)O1 (stereo unspecified) [2,4,6,8-tetramethyl-1,3,5,7,2,4,6,8-tetroxatetrasilocane] + Cc1cccc(C)c1
mass density [kg/m3], [1]
Settings | 288.15 K | 298.15 K | 308.15 K
x1 = 0.05 | 882 ± 0.13 | 873.13 ± 0.14 | 864.29 ± 0.14
x1 = 0.1001 | 894.34 ± 0.13 | 885.16 ± 0.13 | 876.06 ± 0.13
x1 = 0.15 | 905.42 ± 0.13 | 896 ± 0.13 | 886.6 ± 0.13
x1 = 0.1999 | 915.45 ± 0.12 | 905.8 ± 0.13 | 896.12 ± 0.13
x1 = 0.2498 | 924.55 ± 0.12 | 914.65 ± 0.12 | 904.73 ± 0.12
x1 = 0.2999 | 932.94 ± 0.12 | 922.8 ± 0.12 | 912.66 ± 0.12
x1 = 0.35 | 940.55 ± 0.12 | 930.19 ± 0.12 | 919.83 ± 0.12
x1 = 0.3995 | 947.41 ± 0.12 | 936.84 ± 0.12 | 926.34 ± 0.12
x1 = 0.4504 | 953.92 ± 0.12 | 943.11 ± 0.12 | 932.41 ± 0.12
x1 = 0.5 | 959.71 ± 0.11 | 948.69 ± 0.12 | 937.79 ± 0.12
x1 = 0.55 | 965.11 ± 0.11 | 953.9 ± 0.11 | 942.81 ± 0.12
x1 = 0.5996 | 970.04 ± 0.11 | 958.65 ± 0.11 | 947.34 ± 0.12
x1 = 0.65 | 974.69 ± 0.11 | 963.1 ± 0.11 | 951.62 ± 0.11
x1 = 0.6995 | 978.87 ± 0.11 | 967.14 ± 0.11 | 955.47 ± 0.11
x1 = 0.7495 | 982.81 ± 0.11 | 970.92 ± 0.11 | 959.07 ± 0.11
x1 = 0.7996 | 986.48 ± 0.11 | 974.42 ± 0.11 | 962.42 ± 0.11
x1 = 0.8498 | 989.84 ± 0.11 | 977.65 ± 0.11 | 965.47 ± 0.11
x1 = 0.8994 | 992.98 ± 0.11 | 980.64 ± 0.11 | 968.32 ± 0.11

C[SiH]1O[SiH](C)O[SiH](C)O[SiH](C)O1 (stereo unspecified) [2,4,6,8-tetramethyl-1,3,5,7,2,4,6,8-tetroxatetrasilocane]
Settings | mass density [kg/m3]
[2] | 992.39 ± 0.11

Cc1ccc(C)cc1 [1,4-dimethylbenzene]
Settings | mass density [kg/m3]
[2] | 856.67 ± 0.13
